Measurements as given in patent US20260070917A1, “CYCLIN DEPENDENT KINASE DEGRADERS AND METHODS OF USE THEREOF” (Differentiated Therapeutics Inc, priority 2023, published 2026).
Read-outs that look alike come from different tables or passages of the source.

Legend:
Format in all cases: cell-based
CDK9 = biological target: T1, CDK9 (Homo sapiens, UniProt P50750); test: HiBit Assay Protocol for CDK9 (HIBIT protein quantification, degradation); conditions: HEK293-CDK9-Hibit cells, compound treatment for 6 hours; for Dmax: read-out: CDK9 HIBIT Protein Quantification Maximum
T1 construct: host or cells: HEK293-CDK9-Hibit
T1 sequence (P50750 whole entry): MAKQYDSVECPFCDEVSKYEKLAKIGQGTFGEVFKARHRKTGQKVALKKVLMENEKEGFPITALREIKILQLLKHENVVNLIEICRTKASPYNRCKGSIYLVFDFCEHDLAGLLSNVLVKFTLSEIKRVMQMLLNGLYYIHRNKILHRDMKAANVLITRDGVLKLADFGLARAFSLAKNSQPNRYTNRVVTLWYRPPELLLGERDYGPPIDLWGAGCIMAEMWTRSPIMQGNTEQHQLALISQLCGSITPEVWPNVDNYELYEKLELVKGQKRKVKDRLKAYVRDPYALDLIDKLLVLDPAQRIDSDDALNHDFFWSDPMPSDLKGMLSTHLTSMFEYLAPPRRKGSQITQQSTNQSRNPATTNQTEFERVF
Method: HiBit Assay Protocol for CDK9
• 1. The culture medium for HEK293-CDK9-Hibit cell was prepared using DMEM with 10% FBS. • 2. Cells were cultivated in T-75 flasks in a cell culture incubator set at 37° C., 5% CO2, 95% relative humidity. Cells were allowed to reach 80-90% confluence before detaching and splitting. • 3. Cultivated cells were rinsed in T-75 flasks with 5 mL PBS. Aspirated off. Added 1.5 mL trypsin, and incubated the cells at 37° C. for approximately 5 minutes or until the cells detached and floated. • 4. Trypsin was inactivated by adding excess serum containing medium. • 5. Cells were harvested from flask into cell culture medium and then the cell number was counted. HEK293-CDK9-Hibit cells were seeded into 384-well plate (cell density: 1.6×10^5 cells/well/50 uL medium) in DMEM medium according to the plate map below and were incubated overnight at 37° C. and 5% CO2. • Note: Cell Cultured Medium: 90% DMEM+10% FBS+1% Penicillin-Streptomycin Liquid
• 1. Test compounds were dissolved at 3 mM DMSO stock solution. Transferred 45 uL of stock solution to a 384 pp-plate. Perform 3-fold, 10-point dilution via transferring 15 uL compound into 30 uL DMSO by using TECAN liquid handler. • 2. The plates were spinned at room temperature at 1,000 RPM for 1 minute. • 3. Transferred 50 nL of diluted compound from compound source plate into the cell plate by Echo. • 4. After compound treatment for 6 hours, removed the plate from incubators and equilibrated at room temperature for 15 minutes. Prepared the HiBit reagent consists of the following ratios: 10 mL of Nano-Glo®-HiBiT Lytic Buffer, 200 uL of Nano-Glo®-HiBiT Lytic Substrate and 100 uL of LgBiT Protein, mixed thoroughly. Added 20 uL of HiBit reagent into each well and spinned the plates at room temperature at 1,000 RPM for 1 minute to be detected. Plates were then shaken at 600 RPM at room temperature for 20 minutes, and read by EnVision. • 5. The inhibition activity was calculated following the formula below:
[formula] • Note: Where HC was obtained from cells treated with 0.1% DMSO only; LC was obtained from culture medium only. • 6. The ABS DC50 was calculated by fitting the Curve using Xlfit (v5.3.1.3), equation 201: […]

CDK2 = biological target: T2, CDK2 (Homo sapiens, UniProt P24941); test: HiBit Assay Protocol for CDK2 (HIBIT protein quantification, degradation); conditions: HEK293-CDK2-Hibit cells, compound treatment for 6 hours; for DC50: ABS DC50
T2 construct: host or cells: HEK293-CDK2-Hibit
Method: HiBit Assay Protocol for CDK2
• 1. The culture medium for HEK293-CDK2-Hibit cells was prepared using DMEM with 10% FBS. • 2. Cells were cultivated in T-75 flasks in a cell culture incubator set at 37° C., 5% CO2, 95% relative humidity. Cells were allowed to reach 80-90% confluence before detaching and splitting. • 3. Cultivated cells were rinsed in T-75 flasks with 5 mL PBS. Aspirate off Added was 1.5 mL trypsin, and the cells were incubated at 37° C. for approximately 5 minutes or until the cells detached and floated. • 4. Trypsin was inactivated by adding excess serum containing medium. • 5. Cells were harvested from flask into cell culture medium and then the cell number was counted. HEK293-CDK2-Hibit cells were seeded into 384-well plate (cell density: 1.6×10^5 cells/well/50 uL medium) in DMEM medium according to the plate map below and incubated overnight at 37° C. and 5% CO2. • Note: Cell Cultured Medium: 90% DMEM+10% FBS+1% Penicillin-Streptomycin Liquid
(§1) • 1. Test compounds were dissolved at 10 mM DMS stock solution. 45 uL of stock solution was transferred to a 384 pp-plate. A 3-fold, 10-point dilution was performed via transferring 15 uL compound into 30 uL DMSO by using TECAN liquid handler. • 2. The plates were spinned at room temperature at 1,000 RPM for 1 minute. • 3. 50 nL of diluted compound was transferred from compound source plate into the cell plate by Echo. • 4. After compound treatment for 6 hours, the plate was removed from incubators and equilibrated at room temperature for 15 minutes. The HiBit reagent was prepared, consisting of the following ratios: 10 mL of Nano-Glo®-HiBiT Lytic Buffer, 200 μL of Nano-Glo®-HiBiT Lytic Substrate and 100 uL of LgBiT Protein, mixed thoroughly. 20 μL of HiBit reagent was added into each well and the plates were spinned at room temperature at 1,000 RPM for 1 minute to be detected. Then the plates were shaken at 600 RPM at room temperature for 20 minutes, and read by EnVision. • 5. The inhibition activity was calculated following the formula below:
(§2) [formula] • Note: Where HC is obtained from cells treated with […] only; LC is obtained from culture medium only. • 6. ABS DC50 was calculated by fitting the Curve using Xlfit (v5.3.1.3), equation 201: […]

CCNE1 = biological target: T3, CCNE1 (Homo sapiens, UniProt P24864); test: HiBit Assay Protocol for CCNE1 (HIBIT protein quantification, degradation); conditions: HEK293-CCNE1-Hibit cells, compound treatment for 6 hours
T3 construct: host or cells: HEK293-CCNE1-Hibit
T3 sequence (P24864 whole entry): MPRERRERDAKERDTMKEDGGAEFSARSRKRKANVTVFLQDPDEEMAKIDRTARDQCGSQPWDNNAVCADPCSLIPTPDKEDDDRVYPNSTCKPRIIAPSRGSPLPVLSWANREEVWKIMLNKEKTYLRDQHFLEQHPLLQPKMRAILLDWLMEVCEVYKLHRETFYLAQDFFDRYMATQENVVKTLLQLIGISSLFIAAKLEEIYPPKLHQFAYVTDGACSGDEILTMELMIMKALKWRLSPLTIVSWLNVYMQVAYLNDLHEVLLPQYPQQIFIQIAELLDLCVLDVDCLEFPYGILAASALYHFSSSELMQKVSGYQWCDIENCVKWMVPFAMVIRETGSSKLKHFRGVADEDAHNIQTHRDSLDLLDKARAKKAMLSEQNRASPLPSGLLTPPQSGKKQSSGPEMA
Method: HiBit Assay Protocol for CCNE1
• 1. The culture medium for HEK293-CCNE1-Hibit cell was prepared using EMEM with […]. • 2. Cells were cultivated in T-75 flasks in a cell culture incubator set at 37° C., 5% CO2, 95% relative humidity. Cells were allowed to reach 80-90% confluence before detaching and splitting. • 3. Cultivated cells were rinsed in T-75 flasks with 5 mL PBS. Aspirate off Added was 1.5 mL trypsin, and the cells were incubated at 37° C. for approximately 5 minutes or until the cells detached and floated. • 4. Trypsin was inactivated by adding excess serum containing medium. • 5. Cells were harvested from flask into cell culture medium and then the cell number was counted. HEK293-CCNE1-Hibit cell were seeded into 384-well plate (cell density: 1.6×10^5 cells/well/50 uL medium) in EMEM medium according to the plate map below and incubated overnight at 37° C. and […]. • Note: Cell Cultured Medium: 90% EMEM+10% FBS+1% Penicillin-Streptomycin Liquid
as §1, with “mM DMSO” for “mM DMS”, “45 μL” for “45 uL”, “100 μL” for “100 uL”, “Protein, mix” for “Protein, mixed”
as §2

SMILES	CDK9 HIBIT Protein Quantification Maximum (CDK9)	CDK2 HIBIT Protein Quantification Maximum (CDK2)	DC50 (CDK2)	CCNE1 HIBIT Protein Quantification Maximum (CCNE1)	Dmax (CDK9; 6 h)	Dmax (CDK9)	DC50 (CDK9; ABS DC50)
CC(c1cc(S(=O)(=O)N2CC[C@H](Nc3ncc4c(n3)N([C@@H]3CCC[C@@H](O)C3)C(=O)C43CC3)[C@H](F)C2)ccc1F)N1CCC(c2ccc3c(N4CCC(=O)NC4=O)nn(C)c3c2)CC1 (single isomer, unassigned) [Compound 201, 1-(6-{1-[(1R*)-1-{2-Fluoro-5-[(3R,4S)-3-fluoro-4-{7′-[(1R,3R)-3-hydroxycyclohexyl]-6′-oxospiro[cyclopropane-1,5′-pyrrolo[2,3-d]pyrimidin]-2′-ylamino}piperidin-1-ylsulfonyl]phenyl}ethyl]piperidin-4-yl}-1-methylindazol-3-yl)-1,3-diazinane-2,4-dione]	23%	88%	5.66 nM	47%	–	–	–
CC(C)[C@H]1CN([C@@H](C)c2cccc(S(=O)(=O)N3CC[C@H](Nc4ncc5c(n4)N([C@@H]4CCC[C@@H](O)C4)C(=O)C54CC4)[C@H](F)C3)c2)CCN1c1ccc2c(N3CCC(=O)NC3=O)nn(C)c2c1 (single isomer, unassigned) [Compound 202]	–	88%	10.9 nM	37%	20%	–	–
O=C1CCC(N2Cc3cc(N4CCN(C5CN(c6cccc(S(=O)(=O)N7CCC(Nc8ncc9c(n8)N([C@H]8CCC[C@H](O)C8)C(=O)C98CC8)CC7)c6)C5)CC4)ccc3C2=O)C(=O)N1 (stereo in doubt) [Compound 133, 3-[5-(4-{1-[3-(4-{7′-[(1S,3S)-3-Hydroxycyclohexyl]-6′-oxospiro[cyclopropane-1,5′-pyrrolo[2,3-d]pyrimidin]-2′-ylamino}piperidin-1-ylsulfonyl)phenyl]azetidin-3-yl}piperazin-1-yl)-1-oxo-3H-isoindol-2-yl]piperidine-2,6-dione]	–	61%	9.23 nM	26%	14%	–	–
Cn1nc(N2CCC(=O)NC2=O)c2ccc(C3CCN(Cc4cncc(S(=O)(=O)N5CCC(Nc6ncc7c(n6)N([C@H]6CCC[C@H](O)C6)C(=O)C76CC6)CC5)c4)CC3)cc21 (stereo in doubt) [Compound 161, 1-[6-(1-{[5-(4-{7′-[(1S,3S)-3-Hydroxycyclohexyl]-6′-oxospiro[cyclopropane-1,5′-pyrrolo[2,3-d]pyrimidin]-2′-ylamino}piperidin-1-ylsulfonyl)pyridin-3-yl]methyl}piperidin-4-yl)-1-methylindazol-3-yl]-1,3-diazinane-2,4-dione]	–	79%	6.06 nM	45%	–	17%	–
CC(C)[C@H]1CN([C@H](C)c2cccc(S(=O)(=O)N3CC[C@H](Nc4ncc5c(n4)N([C@@H]4CCC[C@@H](O)C4)C(=O)C54CC4)[C@H](F)C3)c2)CCN1c1ccc2c(N3CCC(=O)NC3=O)nn(C)c2c1 (stereo in doubt) [Compound 203]	–	85%	10.2 nM	34%	18%	–	–
CC1CCCC1N1C(=O)C2(CC2)c2cnc(NC3CCN(S(=O)(=O)N4CC5(CCN(C(=O)Cc6cccc7c6n(C)c(=O)n7C6CCC(=O)NC6=O)CC5)C4)CC3)nc21 (stereo not shown) [Compound 15]	–	27%	–	15%	-3%	–	–
CC1CCCC1N1C(=O)C2(CC2)c2cnc(NC3CCN(S(=O)(=O)N4CC5CN(C(=O)CCc6cccc7c6n(C)c(=O)n7C6CCC(=O)NC6=O)CC5C4)CC3)nc21 (stereo not shown) [Compound 16]	–	49%	–	17%	57%	–	3.67 nM
CC1CCCC1N1C(=O)C2(CC2)c2cnc(NC3CCN(S(=O)(=O)N4CCC5(CCCN5C(=O)CCc5cccc6c5n(C)c(=O)n6C5CCC(=O)NC5=O)C4)CC3)nc21 (stereo not shown) [Compound 17]	–	54%	17 nM	26%	26%	–	–
CC1CCCC1N1C(=O)C2(CC2)c2cnc(NC3CCN(S(=O)(=O)N4CC5(CCN(C(=O)Cc6ccc7c(c6)n(C)c(=O)n7C6CCC(=O)NC6=O)CC5)C4)CC3)nc21 (stereo not shown) [Compound 54]	–	14%	–	–	4%	–	–
CC1CCCC1N1C(=O)C2(CC2)c2cnc(NC3CCN(S(=O)(=O)N4CC5C4CCN5C(=O)CCCCc4cccc5c4n(C)c(=O)n5C4CCC(=O)NC4=O)CC3)nc21 (stereo not shown) [Compound 98]	–	31%	–	–	15%	–	–
CC1CCCC1N1C(=O)C2(CC2)c2cnc(NC3CCN(S(=O)(=O)C4CCCN(C(=O)CCCCc5ccc6c(c5)n(C)c(=O)n6C5CCC(=O)NC5=O)C4)CC3)nc21 (stereo not shown) [Compound 115]	–	23%	–	–	7%	–	–
C[C@@H](c1cc(S(=O)(=O)N2CC[C@H](Nc3ncc4c(n3)N([C@@H]3CCC[C@@H](O)C3)C(=O)C43CC3)[C@H](F)C2)ccc1F)N1CCN(c2ccc3c(N4CCC(=O)NC4=O)nn(C)c3c2)CC1 [Compound 211]	–	88%	12.1 nM	40%	–	–	–
